In patent US7897593B2, “HIV integrase inhibitors” (priority 2006, dated 2011):

How the values were obtained:
purified integrase = target: T1, purified integrase (Human immunodeficiency virus type 1 group M subtype B, UniProt P12497); assay: HIV-Integrase binding assay (competition with radiolabeled integrase inhibitor); conditions: competition with [3H]-labeled integrase inhibitor; Cheng and Prusoff
T1 construct: Recombinant integrase (0.26 ng) was incubated with the beads
Protocol: HIV-Integrase binding assay. In this assay competitive binding experiments with test compounds and a radiolabeled integrase inhibitor (compound A) are performed against purified integrase. […] Binding reactions were carried out in 96-well white polystyrene assay plates (Corning, #3600). The following was added sequentially to each well: 20 μl of water or 20μl of human serum (Cellgro Cat# 35-060-CL), 5 μl of serially diluted compound (in 50% DMSO/50% integrase SPA buffer), 5 μl of [^3H]-compound I (6,000 cpm/μl in SPA buffer) and 20 μl of bead/DNA/enzyme complex. The plates were shaken for 2 hours and then allowed to sit at room temperature without shaking overnight. The [^3H]-compound I binding was measured using a Topcount scintillation counter. Cheng and Prusoff equations were used to convert the inhibition of compound 1 binding into the corresponding Ki value. Activity equal to A refers to a compound having Ki=0.001 to 0.003 μM while B and C denote compounds having Ki=0.003 to 0.05 μM and Ki≧0.050 μM respectively.

[1] = system: recombinant NL-Rluc virus; assay: Inhibition of HIV replication; type: cell-based; conditions: Human immunodeficiency virus 1, read-out: Antiviral Activity, NL-RLuc virus; three serum conditions described, the one tabulated is not stated

SMILES	Ki (purified integrase) [nM]	EC50 [1] [nM]
Cc1ncnn1-c1cc(F)ccc1CNC(=O)c1nc2n(c(=O)c1O)CCCOC21CCN(C(=O)C(=O)N(C)C)CC1 [Example 74, 1-(2-(Dimethylamino)-2-oxoacetyl)-N-(4-fluoro-2-(5-methyl-1H-1,2,4-triazol-1-yl)benzyl)-3′-hydroxy-4′-oxo-4′,6′,7′,8′-tetrahydrospiro[piperidine-4,10′-pyrimido[2,1-c][1,4]oxazepine]-2′-carboxamide]	3 to 50	> 100
CN(C)C(=O)C(=O)N1CCC2(CC1)OCCCn1c2nc(C(=O)NCc2ccc(F)cc2)c(O)c1=O [Example 75, 1-(2-(Dimethylamino)-2-oxoacetyl)-N-(4-fluorobenzyl)-3′-hydroxy-4′-oxo-4′,6′,7′,8′-tetrahydrospiro[piperidine-4,10′-pyrimido[2,1-c][1,4]oxazepine]-2′-carboxamide]	3 to 50	10 to 100
CC(=O)N1CCC2(CC1)OCCCn1c2nc(C(=O)NCc2ccc(F)cc2-n2ncnc2C)c(O)c1=O [Example 63]	3 to 50	10 to 100
CN(C)C(=O)C(=O)N1CCC2(CC1)NCCn1c2nc(C(=O)NCc2ccc(F)cc2)c(O)c1=O [Example 34, 1-(2-(Dimethylamino)-2-oxoacetyl)-N-(4-fluorobenzyl)-3′-hydroxy-4′-oxo-4′,6′,7′,8′-tetrahydrospiro[piperidine-4,9′-pyrazino[1,2-a]pyrimidine]-2′-carboxamide]	3 to 50	10 to 100
O=C(NCc1ccc(F)cc1)c1nc2n(c(=O)c1O)CCCOC21CCN(C(=O)OCc2ccccc2)CC1 [Example 48]	1 to 3	10 to 100
Cc1ncnn1-c1cc(F)ccc1CNC(=O)c1nc2n(c(=O)c1O)CCCOC21CCN(S(=O)(=O)N(C)C)CC1 [Example 66]	3 to 50	1 to 10
COC(=O)N1CCC2(CC1)OCCCn1c2nc(C(=O)NCc2ccc(F)cc2-n2ncnc2C)c(O)c1=O [Example 64]	3 to 50	1 to 10
